From article PMC8776995 (Frontiers in Chemistry, 2022)
“And” between values parts separate entries of the source, which are not always exact repeats. Equal values may be shown once.

Assays:
wild-type EGFR = wild-type EGFR (Homo sapiens, UniProt P00533); assay: EGFR kinase assay (ELISA); details: for IC50: IC50 (μM) EGFR, ELISA, 3 μmol/L ATP; for A450: raw ELISA absorbance
H460 cells = assay: CCK-8 antiproliferation assay, H460; details: for Inhibitory efficacy: H460 cells; for IC50: NCI-H460, 48 h, read-out: IC50 (μM) H460, CCK-8, 48 h, average ± SD of three independent experiments
A549 cells = assay: CCK-8 antiproliferation assay, A549; details: for Inhibitory efficacy: A549 cells; for IC50: A549, 48 h, read-out: IC50 (μM) A549, CCK-8, 48 h, average ± SD of three independent experiments
Description: (§1) The compounds were dissolved in DMSO to make a 20 μM stock solution and diluted to the concentration of working solutions with complete growth medium before administration.
(§2) Cells were seeded in 96-well plates: 3,000–5,000 cells/well in 100 ul. One day after seeding, the test compounds at concentration between 1.0 and 16.0 μ M or 0.1% DMSO (as control) were added to cells in triplicate. 48 h later, CCK-8 was added and incubated the plate for 1–4 h in the incubator. The absorbance at 450 nm were measured using a microplate reader (Bio-Tek).

PC-9 cells = assay: CCK-8 antiproliferation assay, PC-9; details: for IC50: PC-9, 48 h, read-out: IC50 (μM) PC-9; for Inhibitory efficacy: single repeats (Repeat 1-3), given as fraction
Description: as §1, §2

H1975 cells = assay: CCK-8 antiproliferation assay, H1975; details: for Inhibitory efficacy: H1975 cells; for IC50: NCI-H1975, 48 h, read-out: IC50 (μM) H1975, CCK-8, 48 h, average ± SD of three independent experiments
Description: as §1, §2

[1] = concentration 0.03 nM, one value per replicate column, 3e-05 µM
[2] = concentration 0.3 nM, one value per replicate column, 0.0003 µM
[3] = concentration 3 nM, one value per replicate column
[4] = concentration 3 nM, one value per replicate column, 0.003 µM
[5] = concentration 30 nM, one value per replicate column
[6] = concentration 30 nM, one value per replicate column, 0.03 µM
[7] = concentration 300 nM, one value per replicate column
[8] = concentration 300 nM, one value per replicate column, 0.3 µM
[9] = concentration 3000 nM, one value per replicate column
[10] = concentration 3000 nM, one value per replicate column, 3 µM
[11] = concentration 30000 nM, one value per replicate column
[12] = concentration 30000 nM, one value per replicate column, 30 µM
[13] = 2uM, given as fraction, Repeat 1-3
[14] = 8uM, given as fraction, Repeat 1-3
[15] = 16uM, given as fraction, Repeat 1-3
[16] = Homo sapiens, NCI-H460, read-out: Inhibitory efficacy, H460 cells, 8uM, given as fraction, Repeat 1-3
[17] = Homo sapiens, NCI-H460, read-out: Inhibitory efficacy, H460 cells, 16uM, given as fraction, Repeat 1-3
[18] = 1uM, given as fraction, Repeat 1-3
[19] = 4uM, given as fraction, Repeat 1-3
[20] = Homo sapiens, A549, read-out: Inhibitory efficacy, A549 cells, 1uM, given as fraction, Repeat 1-3
[21] = Homo sapiens, A549, read-out: Inhibitory efficacy, A549 cells, 4uM, given as fraction, Repeat 1-3
[22] = Homo sapiens, A549, read-out: Inhibitory efficacy, A549 cells, 16uM, given as fraction, Repeat 1-3
[23] = Homo sapiens, NCI-H1975, read-out: Inhibitory efficacy, H1975 cells, 8uM, given as fraction, Repeat 1-3
[24] = Homo sapiens, NCI-H1975, read-out: Inhibitory efficacy, H1975 cells, 16uM, given as fraction, Repeat 1-3

wild-type EGFR, sequence (P00533 25-1210): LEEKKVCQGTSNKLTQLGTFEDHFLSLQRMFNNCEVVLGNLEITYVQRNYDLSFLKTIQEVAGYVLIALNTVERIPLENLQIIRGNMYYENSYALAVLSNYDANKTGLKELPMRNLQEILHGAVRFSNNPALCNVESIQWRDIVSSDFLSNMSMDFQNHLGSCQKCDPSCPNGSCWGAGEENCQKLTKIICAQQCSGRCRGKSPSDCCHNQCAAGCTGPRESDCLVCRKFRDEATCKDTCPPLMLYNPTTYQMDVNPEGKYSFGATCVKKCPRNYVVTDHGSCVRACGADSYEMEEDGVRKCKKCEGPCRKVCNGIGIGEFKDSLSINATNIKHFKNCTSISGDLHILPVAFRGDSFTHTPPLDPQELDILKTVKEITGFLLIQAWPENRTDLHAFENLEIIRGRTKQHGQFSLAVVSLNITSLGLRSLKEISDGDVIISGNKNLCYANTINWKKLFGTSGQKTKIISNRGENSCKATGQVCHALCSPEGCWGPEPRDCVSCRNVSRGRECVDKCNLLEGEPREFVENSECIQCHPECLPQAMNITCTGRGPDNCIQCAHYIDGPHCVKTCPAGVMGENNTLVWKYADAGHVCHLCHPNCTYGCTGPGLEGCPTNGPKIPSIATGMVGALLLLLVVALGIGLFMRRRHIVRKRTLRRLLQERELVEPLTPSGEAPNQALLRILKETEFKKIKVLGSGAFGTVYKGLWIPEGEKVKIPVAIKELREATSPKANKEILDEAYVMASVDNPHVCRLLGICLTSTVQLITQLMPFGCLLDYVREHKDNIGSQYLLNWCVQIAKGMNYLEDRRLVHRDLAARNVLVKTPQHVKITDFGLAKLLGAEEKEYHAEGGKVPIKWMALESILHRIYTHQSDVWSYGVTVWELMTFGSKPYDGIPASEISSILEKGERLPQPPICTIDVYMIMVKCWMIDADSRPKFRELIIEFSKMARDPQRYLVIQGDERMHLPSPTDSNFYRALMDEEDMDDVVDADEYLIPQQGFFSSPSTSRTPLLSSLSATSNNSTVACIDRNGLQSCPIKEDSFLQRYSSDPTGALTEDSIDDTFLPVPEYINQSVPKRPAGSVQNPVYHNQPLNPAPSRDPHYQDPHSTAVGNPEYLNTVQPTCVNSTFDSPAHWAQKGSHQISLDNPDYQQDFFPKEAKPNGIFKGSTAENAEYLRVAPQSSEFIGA

CCOc1cccc(-n2cc(-c3cccc(Nc4ncnc5cc(OCCOC)c(OCCOC)cc45)c3)nn2)c1 [e14, [6,7-Bis-(2-methoxy-ethoxy)-quinazolin-4-yl]-{3-[1-(3-ethoxy-phenyl)-1H-[1,2,3]triazol-4-yl]-phenyl}-amine]
melting point: 110 to 114 °C | IC50 (wild-type EGFR): 10.7 µM | inhibition at 30 pM (wild-type EGFR; concentration 0.03 nM, one value per replicate column): 3.1% | Inhibition (wild-type EGFR; [1]): 4.587 | inhibition at 0.0003 µM (wild-type EGFR; concentration 0.3 nM, one value per replicate column): 5.16% | Inhibition (wild-type EGFR; [2]): 5.242 | inhibition at 0.003 µM (wild-type EGFR; [3]): 5.55% | Inhibition (wild-type EGFR; [4]): 6.684 | inhibition at 0.03 µM (wild-type EGFR; [5]): 10.7% | Inhibition (wild-type EGFR; [6]): 8.781 | inhibition at 0.3 µM (wild-type EGFR; [7]): 11.4% | Inhibition (wild-type EGFR; [8]): 9.699 | inhibition at 3 µM (wild-type EGFR; [9]): 22.2% | Inhibition (wild-type EGFR; [10]): 18.3486 | inhibition at 30 µM (wild-type EGFR; [11]): 74.1% | Inhibition (wild-type EGFR; [12]): 73.6566 | A450 (wild-type EGFR; concentration 0.0001 nM): 1.058 and 1.062 | A450 (wild-type EGFR; concentration 0.03 nM): 1.034 and 1.027 | A450 (wild-type EGFR; concentration 0.3 nM): 1.018 and 1.022 | A450 (wild-type EGFR; concentration 3 nM): 1.015 and 1.011 | A450 (wild-type EGFR; concentration 30 nM): 0.975 and 0.995 | A450 (wild-type EGFR; concentration 300 nM): 0.97 and 0.988 | A450 (wild-type EGFR; concentration 3000 nM): 0.886 and 0.922 | A450 (wild-type EGFR; concentration 30000 nM): 0.484 and 0.5 | Inhibitory efficacy (H460 cells; [13]): 0.09418 and 0.1351 | Inhibitory efficacy (H460 cells; [14]): 0.192 and 0.3038 | Inhibitory efficacy (H460 cells; [15]): 0.3527 and 0.3328 | IC50 (H460 cells; Homo sapiens): 34.1 ± 2.5 µM | inhibition at 2 µM (H460 cells; Homo sapiens, NCI-H460, read-out: Inhibitory efficacy, H460 cells, 2uM, given as fraction, Repeat 1-3): 8.02% | inhibition at 8 µM (H460 cells; [16]): 25.9% | inhibition at 16 µM (H460 cells; [17]): 30.4% | Inhibitory efficacy (A549 cells; [18]): 0.06697 and 0.1106 | Inhibitory efficacy (A549 cells; [19]): 0.2585 and 0.1473 | Inhibitory efficacy (A549 cells; [15]): 0.1909 and 0.2764 | IC50 (A549 cells; Homo sapiens): > 100 µM | inhibition at 1 µM (A549 cells; [20]): 8.24% | inhibition at 4 µM (A549 cells; [21]): 25.4% | inhibition at 16 µM (A549 cells; [22]): 26.4% | IC50 (PC-9 cells; Homo sapiens): > 100 µM | Inhibitory efficacy (H1975 cells; [18]): 0.1721 and 0.1925 | Inhibitory efficacy (H1975 cells; [13]): 0.2391 and 0.2224 | Inhibitory efficacy (H1975 cells; [19]): 0.4814 and 0.4311 | Inhibitory efficacy (H1975 cells; [14]): 0.5466 and 0.5764 | Inhibitory efficacy (H1975 cells; [15]): 0.5969 and 0.5615 | IC50 (H1975 cells; Homo sapiens): 7.5 ± 0.49 µM | inhibition at 1 µM (H1975 cells; Homo sapiens, NCI-H1975, read-out: Inhibitory efficacy, H1975 cells, 1uM, given as fraction, Repeat 1-3): 20.6% | inhibition at 2 µM (H1975 cells; Homo sapiens, NCI-H1975, read-out: Inhibitory efficacy, H1975 cells, 2uM, given as fraction, Repeat 1-3): 28.4% | inhibition at 4 µM (H1975 cells; Homo sapiens, NCI-H1975, read-out: Inhibitory efficacy, H1975 cells, 4uM, given as fraction, Repeat 1-3): 34% | inhibition at 8 µM (H1975 cells; [23]): 58.6% | inhibition at 16 µM (H1975 cells; [24]): 57.3%

COCCOc1cc2ncnc(Nc3cccc(-c4cn(-c5ccccc5C(F)(F)F)nn4)c3)c2cc1OCCOC [e16, [6,7-Bis-(2-methoxy-ethoxy)-quinazolin-4-yl]-{3-[1-(2-trifluoromethyl-phenyl)-1H-[1,2,3]triazol-4-yl]-phenyl}-amine]
melting point: 113 to 116 °C | IC50 (wild-type EGFR): 32.5 µM | Inhibition (wild-type EGFR; [1]): 19.0252 and 4.409 | Inhibition (wild-type EGFR; [2]): 9.134 | inhibition at 0.003 µM (wild-type EGFR; [3]): 19.8% | Inhibition (wild-type EGFR; [4]): 15.5906 | inhibition at 0.03 µM (wild-type EGFR; [5]): 23.4% | Inhibition (wild-type EGFR; [6]): 15.748 | inhibition at 0.3 µM (wild-type EGFR; [7]): 27% | Inhibition (wild-type EGFR; [8]): 20.1575 | inhibition at 3 µM (wild-type EGFR; [9]): 29.6% | Inhibition (wild-type EGFR; [10]): 27.7165 | inhibition at 30 µM (wild-type EGFR; [11]): 60.1% | Inhibition (wild-type EGFR; [12]): 60 | A450 (wild-type EGFR; concentration 0.0001 nM): 0.901 and 0.865 | A450 (wild-type EGFR; concentration 0.03 nM): 0.78 and 0.837 | A450 (wild-type EGFR; concentration 0.3 nM): 0.775 and 0.807 | A450 (wild-type EGFR; concentration 3 nM): 0.775 and 0.766 | A450 (wild-type EGFR; concentration 30 nM): 0.752 and 0.765 | A450 (wild-type EGFR; concentration 300 nM): 0.729 and 0.737 | A450 (wild-type EGFR; concentration 3000 nM): 0.713 and 0.689 | A450 (wild-type EGFR; concentration 30000 nM): 0.519 and 0.484 | Inhibitory efficacy (H460 cells; [19]): 0.2156 and 0.191 | Inhibitory efficacy (H460 cells; [14]): 0.4491 and 0.447 | Inhibitory efficacy (H460 cells; [15]): 0.6066 and 0.6034 | IC50 (H460 cells; Homo sapiens): 10.9 ± 0.39 µM | inhibition at 4 µM (H460 cells; Homo sapiens, NCI-H460, read-out: Inhibitory efficacy, H460 cells, 4uM, given as fraction, Repeat 1-3): 21.3% | inhibition at 8 µM (H460 cells; [16]): 49.5% | inhibition at 16 µM (H460 cells; [17]): 57.3% | Inhibitory efficacy (A549 cells; [18]): 0.2305 and 0.3107 | Inhibitory efficacy (A549 cells; [13]): 0.2917 and 0.3288 | Inhibitory efficacy (A549 cells; [19]): 0.4966 and 0.48 | Inhibitory efficacy (A549 cells; [14]): 0.5015 and 0.5395 | Inhibitory efficacy (A549 cells; [15]): 0.6478 and 0.6577 | IC50 (A549 cells; Homo sapiens): 5.75 ± 0.48 µM | inhibition at 1 µM (A549 cells; [20]): 15.9% | inhibition at 2 µM (A549 cells; Homo sapiens, A549, read-out: Inhibitory efficacy, A549 cells, 2uM, given as fraction, Repeat 1-3): 32.3% | inhibition at 4 µM (A549 cells; [21]): 54.2% | inhibition at 8 µM (A549 cells; Homo sapiens, A549, read-out: Inhibitory efficacy, A549 cells, 8uM, given as fraction, Repeat 1-3): 54.2% | inhibition at 16 µM (A549 cells; [22]): 64% | IC50 (PC-9 cells; Homo sapiens): 7.71 ± 1.15 µM | inhibition at 4 µM (PC-9 cells; Homo sapiens, PC-9, read-out: Inhibitory efficacy, PC-9, 4uM, single repeats (Repeat 1-3), given as fraction): 49.1% | inhibition at 8 µM (PC-9 cells; Homo sapiens, PC-9, read-out: Inhibitory efficacy, PC-9, 8uM, single repeats (Repeat 1-3), given as fraction): 56.9% | inhibition at 16 µM (PC-9 cells; Homo sapiens, PC-9, read-out: Inhibitory efficacy, PC-9, 16uM, single repeats (Repeat 1-3), given as fraction): 60.8% | Inhibitory efficacy (PC-9 cells; PC-9, 4uM, 4 µM): 0.4427 and 0.4497 | Inhibitory efficacy (PC-9 cells; PC-9, 8uM, 8 µM): 0.7173 and 0.5415 | Inhibitory efficacy (PC-9 cells; PC-9, 16uM, 16 µM): 0.5494 and 0.5275 | Inhibitory efficacy (H1975 cells; [14]): 0.3646 and 0.348 | Inhibitory efficacy (H1975 cells; [15]): 0.506 and 0.5045 | IC50 (H1975 cells; Homo sapiens): 15.3 ± 1.55 µM | inhibition at 8 µM (H1975 cells; [23]): 44% | inhibition at 16 µM (H1975 cells; [24]): 48%
